Laboratory results taken from PMC6349905 (Cell Death Discovery, 2019).
Read-outs that look alike come from different tables or passages of the source.

How the values were obtained:
TMEM97 KO HeLa cells = test: Cell viability assay (CellTiter Glo), TMEM97 KO cells; type: cell-based, human; settings: 24 h, mean ± SD
Description: (§1) HeLa human cervical cancer cells were from American Type Culture Collection (ATCC, Manassas, VA). Control, TMEM97 KO, PGRMC1 KO and TMEM97/PGRMC1 double KO HeLa cell lines were grown in MEM containing 10% fetal bovine serum, 2 mM L-glutamine, 1% non-essential amino acids, 100 units/ml penicillin, and 100 μg/ml streptomycin. All the cell lines were maintained at 37 °C in a humidified incubator with a 5% CO2/95% air atmosphere.

[1] = test system: TMEM97/PGRMC1 double KO HeLa cells; test: Cell viability assay (CellTiter Glo), double KO cells; type: cell-based, human; settings: 24 h, mean ± SD
Description: as §1

[2] = test system: control, TMEM97 KO, PGRMC1 KO and double KO HeLa cells; test: Cell viability assay across control and knockout HeLa cell lines (results in words); settings: for block of sigma-2 ligand-induced cytotoxicity: 30 µM, 1 h pre-incubation, then with sigma-2 agonists 24 h, all four cell lines; for cytotoxicity in control and knockout cells: TMEM97 KO, PGRMC1 KO and double KO HeLa cells
Description: In order to study whether sigma-2 ligand-induced cytotoxicity is mediated by sigma-1 receptors, we used a sigma-1 agonist, (+)-pentazocine, or sigma-1 antagonist, NE-100, to block the sigma-1 binding site and then examined sigma-2 ligand-induced cytotoxicity. […] We pre-incubated cells with vehicle (cell culture media), 30 µM (+)-pentazocine, or 30 µM NE-100 for 1 h, then treated cells with sigma-2 agonists in the absence or presence of (+)-pentazocine or NE-100 for 24 h.
The cytotoxicity of compounds was determined using the CellTiter Glo® chemiluminescent assay (Promega, Madison, WI) that measures ATP. Cells were plated in black wall clear bottom 96-well plates at 5000 cells per well 24 h before treatment. Each compound was dissolved in DMSO and serially diluted in culture medium to acquire the desired concentrations. The final concentration of DMSO in the cell culture medium was no more than 1.0%. After 24 h treatment with the various compounds, 25 μl of the CellTiter Glo® Solution Reagent was added to each well. Then plates were immediately read on a Perkin Elmer Enspire® Multimode Plate Reader. Luminescence detected for each well was normalized to the untreated control and data was calculated as percent viability. The EC50, defined as the concentration of the sigma ligand required to inhibit cell proliferation by 50% relative to untreated cells, was determined from the dose–response curves generated using GraphPad Prism version 6 (GraphPad Software, Inc. La Jolla, CA).

PGRMC1 KO HeLa cells = test: Cell viability assay (CellTiter Glo), PGRMC1 KO cells; type: cell-based, human; settings: 24 h, mean ± SD
Description: as §1

control HeLa cells = test: Cell viability assay (CellTiter Glo), control cells; type: cell-based, human; settings: 24 h, mean ± SD
Description: as §1

sigma-1 receptors = biological target: T1, sigma-1 receptors (Cavia porcellus, UniProt Q60492); test: Sigma-1 receptor competition binding assay with [3H](+)-pentazocine; design: species or system guinea pig
T1 construct: 100 μg guinea pig brain membrane homogenates; from tissue; host or cells: guinea pig brain membrane homogenates
Description: (§2) The sigma-1 and sigma-2 receptor binding affinities of sigma-2 ligands were determined using a competition assay as previously described[32],[33]. […] The concentrations of each non-radioactive compound ranged from 0.1 to 10 μM. The non-specific binding was determined in the presence of 10 μM haloperidol. […] The concentrations of each non-radioactive compound ranged from 0.1 nM to 10 μM. 500 nM of (+)-pentazocine was added to mask the sigma-1 receptor binding site. The non-specific binding was determined in the presence 10 μM DTG.
(§3) After incubation, the bound ligands were filtrated with a M-24 Brandel filtration system (Brandel, Gaithersburg, MD, USA), collected on glass fiber papers (Whatman grade 934-AH, GE Healthcare Bio-Sciences, Pittsburgh, PA), and counted with a MicroBeta2 Microplate counter 2450 (Perkin Elmer, Boston, MA). […] Ki values were reported as mean ± SD from at least three independent experiments.

[3] = test system: DTG residual binding site (RBS); test: DTG RBS competition binding assay, TMEM97 KO cell membranes; design: species or system human; settings: TMEM97 KO HeLa cell membranes, 45 nM [3H]DTG, 500 nM (+)-pentazocine mask
Description: (§4) The binding affinities of sigma-2 ligands for the DTG RBS were determined using a competition assay as previously described[13],[33] with minor modification. For cell harvesting, TMEM97 KO or TMEM97/PGRMC1 double KO HeLa cells were scraped from culture dishes in ice-cold Phosphate-Buffered Saline (PBS) and collected by centrifugation. The cell pellets were immediately stored at −80 °C until use. For cell membrane homogenate preparation, the cell pellets were re-suspended in 10 mL ice-cold PBS, and homogenized using Wheaton overhead stirrer (120 Vac Overhead Stirrer, Millville, NJ, USA) at the speed of 2 for 30 sec. The cell homogenates were then centrifuged for 20 min at 31,000×g at 4 °C. After centrifugation, the supernatant was discarded and the pellets were re-suspended in 1 mL ice-cold PBS and stored at −80 °C freezer until use. […] 500 nM (+)-pentazocine was added to mask the sigma-1 receptor binding site. The non-specific binding was determined in the presence of 60 μM cold DTG.
as §3

sigma-2 receptors [4] = biological target: T2, sigma-2 receptors (Rattus norvegicus, UniProt Q5U3Y7); test: Sigma-2 receptor competition binding assay with [3H]DTG; design: 60 μg Sprague Dawley rat liver membrane homogenates; from tissue; host or cells: Sprague Dawley rat liver membrane homogenates
T2 sequence (Q5U3Y7 1-176): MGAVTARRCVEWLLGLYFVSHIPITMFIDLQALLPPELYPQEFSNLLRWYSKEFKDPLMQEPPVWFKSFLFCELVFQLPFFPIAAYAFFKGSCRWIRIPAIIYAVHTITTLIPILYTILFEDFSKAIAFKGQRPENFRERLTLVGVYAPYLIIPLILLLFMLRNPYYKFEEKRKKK
Description: as §2, §3

[5] = test system: DTG residual binding site (RBS); test: DTG RBS competition binding assay, double KO cell membranes; design: species or system human; settings: double KO HeLa cell membranes, 45 nM [3H]DTG, 500 nM (+)-pentazocine mask
Description: as §4, §3

[6] = test system: control, TMEM97 KO, PGRMC1 KO and double KO HeLa cells; test: Internalization of SW120 (confocal imaging); type: cell-based, human; settings: 100 nM, room temperature
Description: HeLa cells were plated on 35-mm-diameter glass-bottom dishes at 2 × 10^5 cells per dish and incubated for 24 h. Prior to imaging, media was removed and fresh media containing 100 nM SW120 was added to the dishes. SW120 uptake in the live cells at room temperature was imaged using an inverted confocal microscope (Leica STED 3× super-resolution microscope). Images were acquired at 25 s intervals using a ×10 objective lens (using an excitation wavelength of 488 nm, and a 505 to 540 nm bandpass filter). Five optical slices at 2-μm intervals were scanned using the Z-stack function of the Leica imaging software. The brightest optical slice out of the five Z-stack optical slices was chosen for fluorescent intensity analysis. Twenty cells were analyzed in each dish using Fiji, an open-source platform based on ImageJ[35]. The fluorescent intensity was calculated as an average of 60 cells from three independent experiments (mean ± SEM).

sigma-2 receptors [7] = biological target: T2, sigma-2 receptors; settings: rat liver membranes, 500 nM (+)-pentazocine mask
Description: binding, the nonspecific binding was determined inthe presence of
was added to mask the sigma-1 receptor binding site and the
nonspecific binding was determined in the presence 10 μM DTG.
The Kd and Bmax values were determined by a nonlinear regression
analysis using GraphPad Prism software.
The Kd and Bmax values were
reported as mean ± SD in at least three independent experiments

[8] = biological target: DTG residual binding site (RBS); design: method as in PMID 30443021; settings: double KO HeLa cell membranes; read-out: Kd for the [3H]DTG RBS, double KO cell membranes; cited from earlier work
[9] = biological target: DTG residual binding site (RBS); design: method as in PMID 30443021; settings: TMEM97 KO HeLa cell membranes; read-out: Kd for the [3H]DTG RBS, TMEM97 KO cell membranes; cited from earlier work
[10] = test system: caspase-3 activation in control and knockout HeLa cells; test: Caspase-Glo 3/7 assay; type: cell-based, human; settings: 24 h, TMEM97 KO and PGRMC1 KO cell lines
Description: HeLa cells were plated in white opaque 96-well plate at a cell density of 5000 cells per well for 24 h. […] Caspase-3/7 activity was measured by using the Caspase-Glo 3/7 Assay (Promega).

[11] = guinea pig brain membranes, 5 nM [3H](+)-pentazocine, mean ± SD, read-out: Ki for sigma-1 receptors
[12] = rat liver membranes, 5 nM [3H]DTG, 500 nM (+)-pentazocine mask, mean ± SD, read-out: Ki for sigma-2 receptors

T1 sequence (Q60492 whole entry): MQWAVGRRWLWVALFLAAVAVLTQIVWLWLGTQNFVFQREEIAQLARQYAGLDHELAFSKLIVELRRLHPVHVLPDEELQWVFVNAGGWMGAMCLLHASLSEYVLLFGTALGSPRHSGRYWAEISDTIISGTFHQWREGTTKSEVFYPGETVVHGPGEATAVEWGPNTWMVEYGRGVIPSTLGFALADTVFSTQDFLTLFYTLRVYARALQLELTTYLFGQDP

SMILES | cytotoxicity in control and knockout cells [2] | Ki (sigma-1 receptors; [11]) | EC50 (TMEM97 KO HeLa cells; Homo sapiens) | EC50 ([1]; Homo sapiens) | Ki [3] | Ki (sigma-2 receptors [4]; [12]) | Ki [5] | EC50 (PGRMC1 KO HeLa cells; Homo sapiens) | EC50 (control HeLa cells; Homo sapiens) | other results
CCCN(CCC)CCc1ccc(OC)c(OCCc2ccccc2)c1 [NE-100] | did not exhibit cytotoxicity | – | – | – | – | – | – | – | – | EC50 (TMEM97 KO HeLa cells): > 200 µM; EC50 [1]: > 200 µM; block of sigma-2 ligand-induced cytotoxicity [2]: neither (+)-pentazocine nor NE-100 blocked sigma-2 ligand-induced cytotoxicity; EC50 (PGRMC1 KO HeLa cells): > 200 µM; EC50 (control HeLa cells): > 200 µM
COc1cc2c(cc1OC)CN(CCCCNC(=O)c1cc(I)cc(OC)c1OC)CC2 [RHM-4] | – | 3.61 ± 0.533 µM | > 200 µM | > 200 µM | > 100 µM | 0.0024 ± 0.0002 µM | > 100 µM | > 200 µM | > 200 µM | –
COc1cccc2c1CCCC2CCCN1CCN(C2CCCCC2)CC1 (stereo not drawn) [PB28, 1-Cyclohexyl-4-[3-(5-methoxy-1,2,3,4-tetrahydronaphthalen-1-yl)propyl]piperazine] | – | – | 59.8 ± 10.7 µM | 57.4 ± 6.9 µM | 0.0087 µM | 0.0011 ± 0.0003 µM | 0.0052 µM | 59.4 ± 8 µM | 58.2 ± 5.9 µM | –
COc1ccc(C)cc1NC(=O)OC1CC2CCCC(C1)N2CCCCCCCCCCNc1ccc([N+](=O)[O-])c2nonc12 (stereo not drawn) [SW120] | – | 1.94 ± 0.262 µM | – | – | – | – | – | – | – | uptake signals at 60, 90 and 120 min, all cell lines [6]: essentially the same for all the cell lines; internalization rate in knockout cells compared to control cells ([6]; 25-sec intervals for 18 min, TMEM97 KO, PGRMC1 KO and double KO cells): reduced internalization rates; Ki (sigma-2 receptors [4]): 0.001 ± 0.0003 µM
Fc1ccc(-n2cc(CCCCN3CCC4(CC3)OCc3ccccc34)c3ccccc32)cc1 [Siramesine, siramesine] | – | – | 10.3 ± 1.49 µM | 10 ± 1.3 µM | 0.115 µM | – | 0.0497 µM | 10.7 ± 0.7 µM | 12.1 ± 1.7 µM | Ki (sigma-1 receptors): 0.003 ± 0.0005 µM
COc1cc2c(cc1OC)CN(CCCCNC(=O)c1cc(C)ccc1OC)CC2 [RHM-1] | did not exhibit | 1.93 ± 0.625 µM | > 200 µM | > 200 µM | – | – | – | > 200 µM | > 200 µM | –
Cc1ccccc1NC(=N)Nc1ccccc1C [[^3H]DTG, 1,3-Di-o-tolylguanidine] | – | – | – | – | – | – | – | – | – | Bmax of [3H]DTG (sigma-2 receptors [7]): 8958.0 ± 924.9 fmol/mg; Kd [8]: 0.403 µM; Kd [9]: 0.302 µM
COc1ccc(C)cc1NC(=O)OC1CC2CCCC(C1)N2CCCCCCCCCCN (stereo not drawn) [SW43] | – | 0.278 ± 0.065 µM | 30.4 ± 3.4 µM | 32.8 ± 3.8 µM | 33.5 µM | – | 8.62 µM | 33.2 ± 1.6 µM | 33.7 ± 8.6 µM | EC50 of caspase-3/7 activation, comparison of cell lines [10]: identical; Ki (sigma-2 receptors [4]): 0.0129 ± 0.0023 µM
CC(C)=CCN1CC[C@]2(C)c3cc(O)ccc3C[C@H]1[C@H]2C [(+)-pentazocine] | did not exhibit cytotoxicity | – | – | – | – | – | – | – | – | EC50 (TMEM97 KO HeLa cells): > 200 µM; EC50 [1]: > 200 µM; block of sigma-2 ligand-induced cytotoxicity [2]: neither (+)-pentazocine nor NE-100 blocked sigma-2 ligand-induced cytotoxicity; EC50 (PGRMC1 KO HeLa cells): > 200 µM; EC50 (control HeLa cells): > 200 µM
COc1cc2c(cc1OC)CN(CCCCNC(=O)c1cc(C)ccc1OCCF)CC2 [ISO-1] | did not exhibit | 0.0239 ± 0.0019 µM | > 200 µM | > 200 µM | – | 0.002 ± 0.0006 µM | – | > 200 µM | > 200 µM | –
